The subject of the experiment is BSC cells, SV40 CPE inhibition. Briefly: SV40 cytopathic effect inhibition and cytotoxicity, confirmation, BSC cells, set 3 (AID 485276). The following applies: measured here: BSC cell cytotoxicity. For orientation: Damage to the host cells serves as the signal in cytopathic effect assays.
Compound `Oc1c(Cl)cc(Cl)cc1Sc1cc(Cl)cc(Cl)c1O` yielded a TC50 of 21.2 µM.

In turn, `Oc1ccc(Cl)cc1Cc1cc(Cl)ccc1O` displayed a TC50 of 18 µM.

`Oc1ccc(Oc2ccc(O)cc2)cc1` showed a TC50 of 9.92 µM.

For `CC(C)c1cc(C(C)(C)c2ccc(O)c(C(C)C)c2)ccc1O`, the TC50 turned out to be 24 µM.

`CC(C)(c1ccc(O)cc1)c1ccc(Cl)cc1` displayed a TC50 of 71.2 µM.

On to `Oc1ccc(C2(c3ccc(O)cc3)CC2)cc1`, for which the TC50 came out at 196 µM.

`CC(C)(c1ccc(O)cc1)c1ccc(O)cc1` gave a TC50 of 17 µM.

For the origin of these results see PubChem BioAssay AID485276 (Southern Research Specialized Biocontainment Screening …, 2010).
